#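 How tested: cells in 96-well plates exposed to compound for 48 hours at five concentrations. TGI: concentration producing complete growth inhibition.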
# What was measured:
# Assay in all cases: NCI anticancer screen, dose series, 48 h
# MOLT-4 leukemia = test system: MOLT-4 leukemia
# UACC-62 melanoma = test system: UACC-62 melanoma
# NCI-H226 lung = test system: NCI-H226 lung
# HCT-15 colon = test system: HCT-15 colon
# IGROV1 ovarian = test system: IGROV1 ovarian
# COLO 205 colon = test system: COLO 205 colon
# NCI-H460 lung = test system: NCI-H460 lung
# KM12 colon = test system: KM12 colon
# BT-549 breast = test system: BT-549 breast
# CAKI-1 renal = test system: CAKI-1 renal
Structure (SMILES),TGI (MOLT-4 leukemia),TGI (UACC-62 melanoma),TGI (NCI-H226 lung),TGI (HCT-15 colon),TGI (IGROV1 ovarian),TGI (COLO 205 colon),TGI (NCI-H460 lung),TGI (KM12 colon),TGI (BT-549 breast),TGI (CAKI-1 renal)
C[C@]12CC[C@H]3[C@@H](CCC4=C(Br)C(=O)C=C[C@@]43O)[C@@H]1CCC2=O,> 100 µM,> 100 µM,> 100 µM,52.7 µM,> 100 µM,> 100 µM,63.4 µM,> 100 µM,81.1 µM,> 100 µM
COC(=O)[C@@H]1C=C[C@H](NC(C)=O)C1,> 100 µM,> 100 µM,> 100 µM,> 100 µM,> 100 µM,> 100 µM,> 100 µM,> 100 µM,> 100 µM,> 100 µM
Nn1c(Sc2nc3ccccc3c(=O)n2N)nc2ccccc2c1=O,3.69 µM,25.6 µM,5.5 µM,16.5 µM,23.3 µM,28.8 µM,51.7 µM,> 62.3 µM,6.38 µM,20.3 µM
COc1cc2c(cc1O)CCN(C)[C@H]2Cc1ccc(Oc2c(O)c(OC)cc3c2C[C@H]2c4c(c(OC)c(OC)c(OC)c4-3)CCN2C)cc1,11 µM,9.44 µM,13.6 µM,10.1 µM,10.7 µM,12.7 µM,7.65 µM,8.89 µM,11.8 µM,10.9 µM
COC(=O)[C@](C)(Cc1ccccc1)NC(=O)[C@@H](C)N1[C@@H](c2ccccc2)COC1(C)C,> 100 µM,> 100 µM,> 100 µM,> 100 µM,> 100 µM,52.2 µM,> 100 µM,> 100 µM,> 100 µM,> 100 µM
CC1CN=C(c2ccc(-c3nc(-c4ccc(C5=NCC(C)N5)cc4)nc(N(C)C)n3)cc2)N1 (stereo not given),3.79 µM,3.41 µM,5.35 µM,33.9 µM,18 µM,2.38 µM,11.1 µM,8.96 µM,13.7 µM,32 µM
CC(C)(C)C(=O)N1CCN(C=O)C1=S,> 100 µM,> 100 µM,> 100 µM,> 100 µM,> 100 µM,> 100 µM,> 100 µM,> 100 µM,> 100 µM,> 100 µM
NC1c2c(Cl)sc(Cl)c2C(=O)C1O (stereo not given),57.5 µM,43.7 µM,> 100 µM,30.1 µM,> 100 µM,44.4 µM,> 100 µM,> 100 µM,47.6 µM,47.4 µM
CC(=Nc1cc(Cl)cc(Cl)c1)c1ccncc1,> 100 µM,> 100 µM,> 100 µM,> 100 µM,> 100 µM,> 100 µM,> 100 µM,> 100 µM,> 100 µM,> 100 µM
CC1=NN2C(=N)/C(=C/c3ccccc3)C(=O)N=C2S1,> 100 µM,> 100 µM,> 100 µM,> 100 µM,> 100 µM,> 100 µM,> 100 µM,> 100 µM,> 100 µM,> 100 µM
Cc1c(C#N)c(=N)oc2ccccc12,> 100 µM,> 100 µM,> 100 µM,> 100 µM,> 100 µM,> 100 µM,> 100 µM,> 100 µM,> 100 µM,> 100 µM
COC(=O)c1cc(C)ccc1C1CN=NC12Cc1c(C)cc(C)cc1C2=O (stereo not given),56.2 µM,49.6 µM,87.6 µM,69.1 µM,> 100 µM,31.4 µM,42.7 µM,39.1 µM,69.3 µM,> 100 µM
Cn1ccc2c(c1=O)C(=O)OC2(C)C,> 100 µM,> 100 µM,> 100 µM,> 100 µM,> 100 µM,> 100 µM,> 100 µM,> 100 µM,> 100 µM,> 100 µM
CC(C)(Cc1ccccc1)N1C(=O)N1C(C)(C)Cc1ccccc1,55.6 µM,> 100 µM,46 µM,68.2 µM,> 100 µM,77.8 µM,> 100 µM,> 100 µM,> 100 µM,> 100 µM
